“Also recorded” adds a separate entry of the source.
Assays:
colon cancer cells = details: by lowering c-FLIP expression; cited from earlier work
HT-29 cells [1] = assay: Cellular SAMe and MTA levels in HT-29 cells; format: cell-based, human
Experimental: (§1) HT-29 and RKO cells were obtained from the Cell Culture Core of the USC Liver Disease Research Center and grown according to instructions provided by the American Type Culture Collection (ATCC, Rockville, Md.). Prior to treatment with growth factors, SAMe or MTA, medium was changed to 0.1% FBS overnight.
(§2) Cellular SAMe and MTA levels were measured (51) and polyamine levels were determined (52).

Bcl-xL = Bcl-xL mRNA level in HT-29 cells; format: cell-based, human; details: MTA 1 mM, 6 hrs
Experimental: SAMe and MTA induce apoptosis in liver cancer cells by the mitochondrial pathway (14). […] In liver cancer cells, SAMe and MTA induced selectively expression of Bcl-xs, a pro-apoptotic protein (67). We examined whether the same occurs in HT-29 cells. After 6 hrs of MTA (1 mM) treatment, Bcl-xL mRNA level fell by 53% (47±4% of control, results are mean±SE from 4 experiments, p<0.0005). […] This makes these agents particularly attractive in targeting colon cancer cells.

MAT2A [2] = assay: Intestinal MAT2A expression in mice given SAMe or MTA in drinking water; format: in vivo
Experimental: FIG. 30. Effects of oral SAMe and MTA on colonic mRNA levels of MAT2A, MAT2 β, and cFLIPL. Mice were fed SAMe (150 to 450 mg/kg/d) or MTA (75 or 150 mg/kg/d) in drinking water for 6 days. Colonic mucosa was scrapped off and gene expression measured by real-time PCR.
Three-month old male C57/B6 mice were fed ad libitum a standard diet (Harland Tekiad irradiated mouse diet 7912, Madison, Wis.), caged individually and had free access to water supplemented with SAMe ([…]), MTA (75 mg/kg/d), phosphate buffered saline (vehicle for SAMe) or DMSO (0.2%, vehicle for MTA) for 6 days. SAMe and MTA were made fresh daily. The amount of water intake, body weight, and animal behavior were closely monitored. After 6 days, animals were sacrificed, intestine was cut open along the longitudinal axis, and mucosa was stripped from the intestine (46). Mucosa was weighed and a portion processed for SAMe measurement as described below, the rest snap frozen for subsequent RNA extraction.
(§3) Total RNA was isolated by the EZgeno total RNA isolation kit (Genemega, San Giego, Calif.), and subjected to reverse transcription (RT) by using M-MLV Reverse transcriptase (Invitrogen). 2 μl of RT product was subjected to quantitative real-time PCR analysis. The primers and TaqMan probes for MAT2A, MAT2β and Universal PCR Master Mix were purchased from ABI (Foster City, Calif.). Hypoxanthine phosphoribosyl-transferase 1 (HPRT1) and ubiquitin C (UBC) were used as housekeeping genes (48). The thermal profile consisted of 1 cycle at 95° C. for 15 minutes followed by 40 cycles at 95° C. for 15 seconds and at 60° C. for 1 minute. The expression of MAT2A and MAT2β was checked by normalizing the Ct of MAT2A and MAT2β to that of the control housekeeping gene (HPRT1 or UBC) (49). The delta Ct obtained was used to find the relative expression of MAT genes according to the formula: Relative expression=2·^ΔCt, where ΔCt=ΔCt of MAT genes in colon cancer or treated cells—ΔCt of MAT genes in normal colon or control cells.

NCM460 cells = assay: Toxicity and apoptosis in NCM460 normal colonic epithelial cells; format: cell-based, human
Experimental: In these experiments the total treatment duration was limited to 16 hrs to avoid the apoptotic effect. […] Apoptosis was measured by Hoechst staining or Annexin V and propidium iodide staining on flow cytometry.

[3] = Tolerability of oral SAMe and MTA in mice; format: in vivo; details: oral in drinking water, 6 days; weight gain and water consumption similar to controls
Excerpt: SAMe and MTA were made fresh daily. The amount of water intake, body weight, and animal behavior were closely monitored. After 6 days, animals were sacrificed, intestine was cut open along the longitudinal axis, and mucosa was stripped from the intestine (46). Mucosa was weighed and a portion processed for SAMe measurement as described below, the rest snap frozen for subsequent RNA extraction.

SPD syn = SPD syn expression by real-time PCR in HT-29 cells; format: cell-based, human
MAT2A [4] = assay: MAT2A expression in NCM460 cells; format: cell-based, human; details: 5 mM SAMe or 1 mM MTA, 6 hrs
Experimental: as §3
NCM460 cell line was originally established in 1996 as the first non-malignant colonic epithelial cell line derived from the transverse colon (43). When first developed, cells formed both monolayer and in suspension, express villin and cytokeratin staining (43). […] The NCM460 cells in monolayer have features of transverse colon crypt cells (69). […]

c-FLIP = c-FLIP mRNA level by real-time PCR in HT-29 cells; format: cell-based, human; details: SAMe 2 mM, MTA 1 mM, 6 hrs, mean±SE
[5] = Stability of SAMe and MTA in culture medium without cells and in water; format: physicochemical; details: culture medium at 37° C., MTA 1 mM
Experimental: FIG. 12. […] SAMe (A) and MTA (B) levels were measured in culture medium without cells with starting SAMe concentrations ranging from 1 to 5 mM and MTA concentration at 1 mM.
To test whether the mitogens-induce increase in. MAT2A is to provide increased SAMe necessary for polyamine synthesis in growing cells, SAMe and polyamine levels were measured following treatment of HT-29 cells with mitogens.

MAT2β [6] = assay: Colonic MAT2β mRNA in mice fed SAMe or MTA; format: in vivo; details: 75 mg/kg/d MTA, 6 days
Experimental: FIG. 30. Effects of oral SAMe and MTA on colonic mRNA levels of MAT2A, MAT2 β, and […]. Mice were fed SAMe (150 to 450 mg/kg/d) or MTA (75 or 150 mg/kg/d) in drinking water for 6 days. Colonic mucosa was scrapped off and gene expression measured by real-time PCR.

[7] = test system: spermine synthase (SPM syn); assay: SPM syn expression by real-time PCR in HT-29 cells; format: cell-based, human
MAT2A [8] = assay: MAT2A mRNA levels by real-time PCR in HT-29 cells; format: cell-based, human
Experimental: as §1
RNA interference (RNAi) experiments were performed using Lipofectamine RNAiMax (Invitrogen) according to the manufacturer's instructions. Small interfering RNA (siRNA) oligonucleotides for MAT2A and scrambled siRNA were synthesized by the USC Norris Comprehensive Cancer Center Microchemical Core Laboratory, and annealed to form duplexes. Stealth RNAi for MAT2A and Stealth RNAi negative control duplexes were synthesized by Invitrogen (Carlsbad, Calif.). The following siRNA sequences were used: si-MAT2A #1, 5′-[…]-3′ (sense) and 5′-[…]-3′ (antisense); si-control with scrambled sequence (negative control siRNA having no perfect matches to known human genes), 5′-[…]dTdT-3′ (sense) and 5% […]dTdT-3′ (antisense); stealth RNAi-MAT2A #5, 5′-[…]-3′ (sense) and 5′-[…]-3′ (antisense). […]
as §3

[9] = test system: ornithine decarboxylase (ODC); assay: ODC expression by real-time PCR in HT-29 cells; format: cell-based, human
MAT2β [10] = assay: MAT2β mRNA levels by real-time PCR in HT-29 cells; format: cell-based, human; details: HT29 cells, growth factor 100 ng/ml
Experimental: as §1, §3

MAT2A [11] = assay: MAT2A mRNA levels by real-time PCR in RKO cells; format: cell-based, human; details: RKO cells, growth factor 100 ng/ml
Experimental: as §1
RNA interference (RNAi) experiments were performed using Lipofectamine RNAiMax (Invitrogen) according to the manufacturer's instructions. Small interfering RNA (siRNA) oligonucleotides for MAT2A and scrambled siRNA were synthesized by the USC Norris Comprehensive Cancer Center Microchemical Core Laboratory, and annealed to form duplexes. Stealth RNAi for MAT2A and Stealth RNAi negative control duplexes were synthesized by Invitrogen (Carlsbad, Calif.). The following siRNA sequences were used: si-MAT2A #1, 5′-[…]-3′ (sense) and 5′-[…]-3′ (antisense); si-control with scrambled sequence (negative control siRNA having no perfect matches to known human genes), 5′-[…]dTdT-3′ (sense) and 5% […]dTdT-3′ (antisense); stealth RNAi-MAT2A #5, 5′-[…]-3′ (sense) and 5′-[…]-3′ (antisense). Transfection was allowed to proceed 72 hours before collection for different assays.
as §3

HT-29 cells [12] = assay: Polyamine levels in HT-29 cells; format: cell-based, human; details: 6 hrs, mitogen 100 ng/ml
Experimental: as §1, §2

MAT2β [13] = assay: MAT2β (total, V1, V2) mRNA levels by real-time PCR in RKO cells; format: cell-based, human; details: growth factor 100 ng/ml
Experimental: as §1
as §3, with “The delta Ct obtained was used to find the relative expression of MAT genes according to the formula: Relative expression=2·^ΔCt, where ΔCt=ΔCt of MAT genes in colon cancer or treated cells—ΔCt of MAT genes in normal colon or control cells.” left out
To better understand functional differences between the two MAT2β variants, we created vectors expressing either V1 or V2 using the mammalian expression vector pcDNA3.1D/V5-His/TOPO vector (Invitrogen). […] Cell growth was measured by 3H-thymidine incorporation into DNA. […]

[14] = 75 mg/kg/d in drinking water, six days

## O=c1[nH]cc(F)c(=O)[nH]1 [5-FU, 5-fluorouracil]
Colon cancer cells
  TRAIL-induced apoptosis: sensitize colon cancer cells to TRAIL-induced apoptosis

## CSC[C@H]1O[C@@H](n2cnc3c(N)ncnc32)[C@H](O)[C@@H]1O [MTA, methylthioadenosine]
HT-29 cells [1]; 6 hrs, MTA 1 mM
  MTA level: 0.652 ± 0.123 nmol/mg protein
  SAMe level: 0.81 ± 0.09 nmol/mg protein
HT-29 cells [1]; 16 hrs, MTA 1 mM
  MTA level: 0.689 ± 0.108 nmol/mg protein
  SAMe level: 0.54 ± 0.01 nmol/mg protein
Bcl-xL
  fall of Bcl-xL mRNA level: 53%
Bcl-xL; mean±SE from 4 experiments
  Bcl-xL mRNA level: 47±4 % of control
MAT2A [2]; [14]
  MAT2A expression, colon: 87 ± 20 % of control MAT2A mRNA levels
  MAT2A expression, proximal small intestine: 82 ± 2 % of control MAT2A mRNA levels
MAT2A [2]; MTA 75 mg/kg/d, 6 days
  inhibition in colonic MAT2A mRNA level: 85%
MAT2A [2]; SAMe 150 mg/kg/d, MTA 75 mg/kg/d, six days
  decrease of MAT2A expression in proximal small intestine: 20%
NCM460 cells; SAMe 0.2 to 2 mM, MTA 0.2 to 5 mM
  toxicity in NCM460 cells: did not cause any toxicity
NCM460 cells; SAMe up to 2 mM, MTA up to 5 mM
  apoptosis in NCM460 cells: do not cause apoptosis
[3]
  tolerability / toxicity: well tolerated; also recorded: no apparent toxicity
SPD syn; MTA treatment for 6 hrs
  lowering of spermidine synthase mRNA level: 30%
MAT2A [4]
  reduction of MAT2A expression: 40%
c-FLIP
  c-FLIP mRNA level: 47±4 % of control
[5]
  stability: highly stable; also recorded: no change in 24 hrs
MAT2β [6]
  inhibition of MAT2β expression: 60%
[7]; MTA treatment for 6 hrs
  lowering of spermine synthase mRNA level: 30%
MAT2A [8]; SAMe 5 mM or MTA 1 mM, 6 hrs, HT29 cells
  reduction of baseline expression of MAT2A: 60%
[9]; MTA treatment for 6 hrs
  lowering of ornithine decarboxylase (ODC) mRNA level: 30%

## Leptin: growth factor implicated in colon cancer growth and invasion
MAT2β [10]
  MAT2β expression after growth factor: not affected
MAT2A [11]
  MAT2A mRNA levels after growth factor: near doubling
HT-29 cells [1]; 6 hrs, mitogen 100 ng/ml
  MTA level: 0.058 ± 0.010 nmol/mg protein
  SAMe level: 0.48 ± 0.04 nmol/mg protein
HT-29 cells [1]; 16 hrs, mitogen 100 ng/ml
  MTA level: 0.064 ± 0.015 nmol/mg protein
  SAMe level: 0.63 ± 0.02 nmol/mg protein
HT-29 cells [12]
  Putrescine: 0.27 ± 0.02 nmol/mg protein
  Spermidine: 2.62 ± 0.02 nmol/mg protein
  Spermine: 14.62 ± 2.70 nmol/mg protein
MAT2β [13]
  MAT2β expression after growth factor: not affected
SPD syn; 6 hrs, mitogen 100 ng/ml
  SPD syn expression: 2.3 ± 0.25 fold of control
[7]; 6 hrs, mitogen 100 ng/ml
  SPM syn expression: 1.0 ± 0.05 fold of control
MAT2A [8]; HT-29 cells, growth factor 100 ng/ml
  MAT2A mRNA levels after growth factor: near doubling
[9]; 6 hrs, mitogen 100 ng/ml
  ODC expression: 1.6 ± 0.09 fold of control

— patent publication US20100166727A1, “S-Adenosylmethionine And Methylthioadensosine In Chemoprevention And Treatment Of Colon Polyps And Cancer” (UNIVERSITY OF SOUTHERN CALIFORNIA, priority 2007, published 2010)
